Where two headings read alike, the source gives them in different places.

For one data set, the system named is glucose metabolism. The data set can be described thus: In vitro potency in blocking glucose metabolism. The format is cell-based.
In data set [1] the test system is MCF-7 breast cancer cells. Description: MTT cell viability assay, MCF-7 cells. It counts as cell-based. The conditions noted are these: Homo sapiens, MCF7, 72 h, 10% FBS-supplemented medium, read-out: IC50 in inhibiting the viability of MCF-7 breast cancer cells.
Method: (§1) Cell viability was determined using the 3-(4,5-dimethylthiazol-2-yl)-2,5-diphenyltetrazolium bromide) (MTT) assay. LNCaP and MCF-7 cells were seeded in 96-well plates (5000 cells/well) and incubated in their respective culture media supplemented with 10% FBS for 24 h. […] Drug-containing medium was then replaced with 1×MTT (0.5 mg/mL in RPMI 1640), followed by incubation at 37° C. for 2 h. After removal of medium, the reduced MTT dye was solubilized in 200 μL/well DMSO, and absorbances were measured at 570 nm.
The test system of data set [2] is normal prostate epithelial cells (PrECs).
Method: LNCaP hormone-responsive prostate cancer cells and MCF-7 ERα-positive breast cancer cells were obtained from the American Type Culture Collection (Manassas, Va.) and maintained with 10% fetal bovine serum (FBS)-supplemented RPMI 1640 medium and F12/DMEM medium, respectively. Nonmalignant prostate epithelial cells (PrEC) were maintained in prostate epithelial growth medium (PrEGM) (Lonza Inc., Walkersville, Md.). All cells were cultured at 37° C. in a humidified incubator containing 5% CO2. […] Glucose-free RPMI 1640 medium was purchased from Invitrogen (Carlsbad, Calif.). 2-DG, resveratrol, 3-methyladenine (3-MA), nicotinamide and splitomicin were purchased from Sigma-Aldrich (St. Louis, Mo.). The AMPK inhibitor Compound C and cycloheximide were obtained from Calbiochem (San Diego, Calif.). These agents were added to medium with a final DMSO concentration of 0.1%.
as §1
Data set [3] concerns Sirt1 gene expression in LNCaP cells. Description: Time course of Sirt1 expression in LNCaP cells (Western blot/RT-PCR). The conditions noted are these: OSU-CG12 10 μM, 2-DG 10 mM. It counts as cell-based. The procedure: Total RNA was isolated from drug-treated LNCaP cells using the RNeasy mini kit (Qiagen, Valencia, Calif.), and then reverse-transcribed to cDNA using the Omniscript RT Kit (Qiagen) according to manufacturer's instructions. PCR products were separated electrophoretically in 1% agarose gels and visualized by ethidium bromide staining.
Transfections were performed by electroporation using Nucleofector kit R of the Amaxa Nucleofector system (Amaxa Biosystems, Cologne, Germany). LNCaP cells were transfected with the following plasmids or siRNA: WT- and H363Y-Flag-Sirt1 (DN-Sirt1), WT- and K45R-Myc-AMPK (DN-AMPK), GFP-LC3, TSC2 shRNA, and DDIT3 siRNA (GADD153). […] For the fluorescent microscopic analysis, LNCaP cells transfected with the GFP-LC3 expression plasmid or with scrambled or TSC2 shRNA were treated as indicated for 36 h. After cells were fixed with 3.7% formaldehyde at room temperature for 20 min, nuclear counterstaining was performed using a 4,6-diamidino-2-phenylindole (DAPI)-containing mounting medium (Vector Laborotaries, Burlingame, Calif.) before examination. Images were observed using a Nikon microscope (Eclipse TE300).
(In general: A western blot detects proteins with antibodies after separation by electrophoresis.)

The subject of data set [4] is LNCaP prostate cancer cells. The data set can be described thus: MTT cell viability assay, LNCaP cells. It counts as cell-based. The settings on record: Homo sapiens. In general terms: Tetrazolium assays rely on reduction of a dye to a coloured formazan, in cell work by metabolically active cells.
Method: The compounds were tested for their ability to decrease LNCaP prostate cancer cell viability as measured by the 3-(4,5-dimethylthiazol-2-yl)-2,5-diphenyltetrazolium bromide) (MTT) assay.
as §1
The next data set deals with cancer cells. The settings on record: reported in literature; cited from earlier work.
In data set [5] the test system is LPS-stimulated IL-6 production in THP-1 macrophages. Description: ELISA of LPS-stimulated IL-6 production in THP-1 macrophages. The settings on record: 10 μM; for first-tier screening result (AMPK/mTOR activation status and IL-6/IL-6 receptor signaling): LPS-stimulated THP-1 macrophages; for inhibition at 10 µM: Homo sapiens, 6 h, LPS-stimulated THP-1, read-out: inhibition of IL-6 production. It counts as cell-based, human. As to the method:
Cells and cell culture. THP-1 monocytic cells were purchased from the American Type Culture Collection (Rockville, Md.), and maintained with L-glutamine-containing RPMI 1640 supplemented with 10% fetal bovine serum (FBS), 0.25% glucose, 0.01% sodium pyruvate, 50 μM 2-mercaptoethanol, and 0.1 ml/ml penicillin/streptomycin/L-glutamine. Differentiation of THP-1 monocytes into macrophages was carried out by exposure to PMA (50 nM) in the aforementioned RPMI 1640 medium for 24 h. Colon-26 (C-26) adenocarcinoma cells were provided by a researcher at The Ohio State University. The C-26 cells were maintained in RPMI 1640 medium supplemented with 5% FBS and 1% penicillin/streptomycin.
ELISA. IL-6 release by differentiated THP-1 macrophages in response to 10 ng/ml of LPS was analyzed by using the IL-6 ELISA kit (Cayman Chemical Co.; Ann Arbor, Mich.) according to the manufacturer's instruction in triplicate. The effect of each test compound on LPS-stimulated IL-6 release is presented as percent inhibition and was calculated using the following formula: percentage inhibition=100%×{1−[(O.D. of sample−O.D. of control)/(O.D. of LPS−O.D. of control)]}.
A general note: An ELISA detects its analyte on a solid surface through an enzyme-linked reagent.

In data set [6] the test system is human tumor cell lines of the cancer screening panel. Description: NCI60 cell line screening. The format is cell-based. The conditions noted are these: 48 h, SRB; variety of cancer cell types. As to the method:
The NCI60 screening method was carried out using the following methodology. The human tumor cell lines of the cancer screening panel were grown in RPMI 1640 medium containing 5% fetal bovine serum and 2 mM L-glutamine. The cells were then inoculated into 96 well microtiter plates in 100 μL at plating densities ranging from 5,000 to 40,000 cells/well depending on the doubling time of individual cell lines. After cell inoculation, the microtiter plates are incubated at 37° C., 5% CO2, 95% air and 100% relative humidity for 24 h prior to addition of the thiazolidinedione derivatives. […]
Following drug addition, the plates were incubated for an additional 48 h at 37° C., 5% CO2, 95% air, and 100% relative humidity. […] Bound stain is subsequently solubilized with 10 mM trizma base, and the absorbance was read on an automated plate reader at a wavelength of 515 nm. […] Using the seven absorbance measurements [time zero, (Tz), control growth, (C), and test growth in the presence of drug at the five concentration levels (Ti)], the percentage growth is calculated at each of the drug concentrations levels. Percentage growth inhibition is calculated as: [(Ti−Tz)/(C−Tz)]×100 for concentrations for which Ti>/=Tz [(Ti−Tz)/Tz]×100 for concentrations for which Ti<Tz.
Three dose response parameters were calculated for each experimental agent. […]

Another data set has as its system THP-1 cells. The data set can be described thus: MTT viability of THP-1 cells. The format is cell-based, human. The conditions noted are these: at the concentrations used for IL-6 ELISA (dose range b224, 10 μM b226, 1 μM b229).
Data set [7] deals with [3H]-2-DG uptake into LNCaP cells. The data set can be described thus: Glucose uptake assay ([3H]-2-DG). The settings on record: OSU-CG12 at 5 and 10 μM, resveratrol at 50 and 100 μM, P<0.05. It counts as cell-based. The procedure: After washing cells with PBS, glucose uptake was initiated by addition of 1 mL of PBS containing 1 μCi/mL [^3H]-2-DG (Perkin Elmer, Waltham, Mass.) and […] nonradioactive 2-DG. After 5 min, glucose uptake was terminated by extensive washing with PBS, and cells were solubilized in 0.1% SDS buffer. Aliquots were taken for measurements of radioactivity using a scintillation counter LS6500 (Beckman).

The mark [8] stands for this setting: LNCaP, MTT, 72 h, 10% FBS-supplemented medium, read-out: IC50 in inhibiting the viability of LNCaP prostate cancer cells.

As usually defined, the IC50 is the concentration at which inhibition is half-maximal. As for `O=CC[C@@H](O)[C@H](O)[C@H](O)CO` [2-DG, 2-deoxyglucose], the IC50 is at least 4000 µM in the data set with glucose metabolism, 4200 µM in data set [1] and 5500 µM in [4] (setting [8]). Further, the “cytotoxicity to normal prostate epithelial cells (PrECs)” value in data set [2] was “low cytotoxicity”. Moreover, the “duration of transient transcriptional activation of Sirt1 gene expression” value in data set [3] stood at 4 h. Besides, in the data set on cancer cells, the “dose range inducing autophagy in cancer cells” value is 5 to 25 mM.
For orientation: inhibition means the drop in the measured response relative to a control, in per cent. Take `CCOc1c(C)c(C)c2c(c1C)CCC(C)(COc1ccc(C=C3SC(=O)NC3=O)cc1Br)O2` (stereo not shown) [Compound 8, 5-[3-Bromo-4-(6-ethoxy-2,5,7,8-tetramethyl-chroman-2-ylmethoxy)-benzylidene]-thiazolidine-2,4-dione]: in data set [5], the “first-tier screening result (AMPK/mTOR activation status and IL-6/IL-6 receptor signaling)” value is reported as “active”; the inhibition at 10 µM was above 80%.
As to `CCCCOc1c(C)c(C)c2c(c1C)CCC(C)(COc1ccc(C=C3SC(=O)NC3=O)cc1OC)O2` (stereo not shown) [Compound 12, 5-[4-(6-Butoxy-2,5,7,8-tetramethyl-chroman-2-ylmethoxy)-3-methoxy-benzylidene]-thiazolidine-2,4-dione], in data set [5], the “first-tier screening result (AMPK/mTOR activation status and IL-6/IL-6 receptor signaling)” value is on record as “active”; the inhibition at 10 µM was above 80%.
With `Cc1c(C)c2c(c(C)c1OCCCC#N)CCC(C)(COc1ccc(C=C3SC(=O)NC3=O)cc1Br)O2` (stereo not shown) [Compound 21, 4-{2-[2-Bromo-4-(2,4-dioxo-thiazolidin-5-ylidenemethyl)-phenoxymethyl]-2,5,7,8-tetramethyl-chroman-6-yloxy}-butyronitrile], in [5], the “first-tier screening result (AMPK/mTOR activation status and IL-6/IL-6 receptor signaling)” value is given as “active”; the inhibition at 10 µM is above 80%.
As to `CCCN1C(=O)SC(=Cc2ccc(O)c(C(F)(F)F)c2)C1=O` [Compound 44, 5-(4-Hydroxy-3-trifluoromethyl-benzylidene)-3-propyl-thiazolidine-2,4-dione], the inhibition at 10 µM in data set [5] is above 80%.
For `COc1ccc(S(=O)(=O)Nc2ccc(C=C3SC(=O)N(CC4(C)CCCCC4)C3=O)cc2)cc1` [Compound 49, 4-Methoxy-N-{4-[3-(1-methyl-cyclohexylmethyl)-2,4-dioxo-thiazolidin-5-yli-denemethyl]-phenyl}-benzenesulfonamide], the “first-tier screening result (AMPK/mTOR activation status and IL-6/IL-6 receptor signaling)” value in [5] is “active”.
`CC1(CN2C(=O)SC(=Cc3ccc(NS(=O)(=O)c4ccc([N+](=O)[O-])cc4)cc3)C2=O)CCCCC1` [Compound 54, N-{4-[3-(1-Methyl-cyclohexylmethyl)-2,4-dioxo-thiazolidin-5-ylidenemethyl]-phenyl}-4-nitro-benzenesulfonamide]: in data set [5], the “first-tier screening result (AMPK/mTOR activation status and IL-6/IL-6 receptor signaling)” value is recorded as “active”; the inhibition at 10 µM was above 80%.
As to `CCC(CC)CN1C(=O)S/C(=C\c2ccc(O)c(C(F)(F)F)c2)C1=O` [OSU-CG5, (Z)-3-(2-Ethyl-butyl)-5-(4-hydroxy-3-trifluoromethyl-benzylidene)-thiazolidine-2-4-dione], the “antitumor potency in NCI 60 cell line screening” value in data set [6] was “significantly antitumor potency”.
For `C=CCOc1c(C)c(C)c2c(c1C)CCC(C)(COc1ccc(/C=C3\SC(=O)NC3=O)cc1Br)O2` (stereo not shown) [STG28], the IC50 was 11 µM in data set [1] and 12 µM in [4] (setting [8]).
In the case of `CC1(COc2ccc(CC3SC(=O)NC3=O)cc2)CCCCC1` (stereo not shown) [ciglitazone], the IC50 amounted to 42 µM in [1] and 70 µM in data set [4] (setting [8]). In addition, the “effect on viability of THP-1 cells” value in the data set with THP-1 cells is reported as “neither agent inhibited the viability of THP-1 cells”.
In the case of `Oc1ccc(C=Cc2cc(O)cc(O)c2)cc1` [resveratrol], the IC50 is at least 50 µM with glucose metabolism; 60 µM in data set [1]; 110 µM in [4] (setting [8]); 60 to 110 µM in data set [4] (summary over LNCaP and MCF-7 cells, read-out: IC50 in suppressing cancer cell growth). Moreover, the “cytotoxicity to normal prostate epithelial cells (PrECs)” value in [2] is recorded as “low cytotoxicity”. Moreover, the “inhibition of glucose uptake” value in data set [7] is “significantly inhibit glucose uptake”. Also, the “dose range inducing autophagy in cancer cells” value in the data set with cancer cells is 0.05 to 0.1 mM.
For `Cc1c(C)c2c(c(C)c1O)CCC(C)(COc1ccc(CC3SC(=O)NC3=O)cc1)O2` (stereo not shown) [troglitazone], the IC50 in data set [1] and in data set [4] (setting [8]) was 70 µM throughout.
